Common to all, as to format: cell-based, human
One experiment concerns PTGER2 gene. Briefly: RT-PCR of PTGER2 gene expression in treated neuroblastoma cell lines lacking PTGER2 expression. The procedure:
Moreover, in order to investigate whether or not the lowered expression of the PTGER2 gene was due to DNA methylation, neuroblastoma cell lines lacking expression of the PTGER2 gene were used and treated with 1 μM or 5 μM of 5-aza-dCyd, a demethylating reagent, for 5 days and/or 100 ng/ml of TSA, a deacetylation inhibitor, for 12 hours. RNA was extracted from each cell line and the PTGER2 gene expression thereof was examined by RT-PCR (FIG. 1C).

In the next experiment the test system is PTGDR gene. Nature of the experiment: RT-PCR of PTGDR gene expression in treated neuroblastoma cell lines. As to conditions: three types of neuroblastoma cell lines, treatment with 5-aza-dCyd.
For experiment [1], the system named is CpG island of the PTGER2 gene. Nature of the experiment: Methylation status of the PTGER2 CpG island in neuroblastoma cells cultured with a demethylating agent. The conditions noted are these: neuroblastoma cells cultured in the presence of 5-aza-dC.
Another experiment concerns GOTO and SJ-N-CG cells. Briefly: WST cell viability assay in neuroblastoma cell lines. As to conditions: PTGER2 gene-nonexpressing cell lines (GOTO, SJ-N-CG); 0.01 mM, 0.1 mM, 1 mM for 72 hours. The procedure: Since the PTGER2 protein and G protein are coupled to be associated with increased intracellular cAMP concentration (Narumiya, et al., Physiol Rev, 79, 1193-1226, 1999), the association between intracellular cAMP concentration and proliferation of neuroblastoma was investigated. First, neuroblastoma cell lines lacking expression of the PTGER2 gene (GOTO and SJ-N-CG) and neuroblastoma cell lines expressing the PTGER2 gene (SJ-N-KP and KP-N-SIFA) were cultured in a growth medium with 0 mM, 0.01 mM, 0.1 mM, and 1 mM of 8-Br-cAMP for 72 hours. Then, the viability of these cells was detected by WST assay (FIG. 5).

“Also recorded” adds a separate entry of the source.

On to `Nc1ncn([C@H]2C[C@H](O)[C@@H](CO)O2)c(=O)n1` [5-aza-dCyd, 5-azadeoxycytidine], for which the PTGER2 gene expression result is reported as “restored” in the experiment on PTGER2 gene (1 μM or 5 μM 5-aza-dCyd alone for 5 days) and “successfully restored” in the experiment on PTGER2 gene (1 μM or 5 μM 5-aza-dCyd alone for 5 days, listed as 5-aza-dC). Also, the PTGDR gene expression entry in the experiment with PTGDR gene is recorded as “restored”. The “demethylation of the CpG island of the PTGER2 gene” value in experiment [1] is listed as “successfully demethylated”.

`Nc1ncnc2c1nc(Br)n2[C@@H]1O[C@@H]2COP(=O)(O)O[C@H]2[C@H]1O` [8-Br-cAMP]: the “proliferation (cell viability by WST assay)” value in the experiment with GOTO and SJ-N-CG cells is listed as “suppressed”.

As for `CC(/C=C/C(=O)NO)=C\[C@@H](C)C(=O)c1ccc(N(C)C)cc1` [TSA, Trichostatin A], in the experiment with PTGER2 gene (100 ng/ml TSA alone for 12 hours), the PTGER2 gene expression result is reported as “restored; also recorded: increased level”.

Values taken from US20090004660A1, “METHOD FOR DETECTING NEUROBLASTOMA AND ITS MALIGNANCY AND METHOD FOR SUPPRESSING THE SAME” (priority 2007, published 2009).
